From the NIST ThermoML archive (doi:10.1016/j.jct.2011.10.023)

Details: Liquid, Vibrating tube method

CCO [ethanol]
mass density [kg/m3]
Details	278.15 K	288.15 K	298.15 K	308.15 K	318.15 K	328.15 K	338.15 K	348.15 K	358.15 K
100 kPa	801.9	793.4	784.8	776.1	767.4	758.4	749.1	739.5	729.5
1000 kPa	802.7	794.2	785.6	777	768.3	759.4	750.2	740.7	730.7
5000 kPa	805.9	797.6	789.3	780.9	772.4	763.7	754.8	745.6	736
10000 kPa	809.9	801.8	793.6	785.4	777.2	768.8	760.1	751.3	742.1
15000 kPa	813.6	805.8	797.7	789.7	781.7	773.6	765.2	756.6	747.7
20000 kPa	817.2	809.5	801.7	793.9	786	778.1	769.9	761.6	753
25000 kPa	820.6	813.1	805.3	797.8	790.1	782.4	774.4	766.4	758
30000 kPa	824	816.6	809	801.5	794	786.5	778.7	770.8	762.8
35000 kPa	827.2	819.9	812.5	805.2	797.8	790.4	782.8	775.1	767.2
40000 kPa	830.3	823.1	815.9	808.7	801.4	794.2	786.7	779.2	771.5
45000 kPa	833.3	826.3	819.2	812	804.9	797.8	790.5	783.1	775.6
50000 kPa	836.3	829.3	822.3	815.3	808.3	801.3	794.1	786.9	779.5
55000 kPa	839.1	832.3	825.4	818.5	811.6	804.7	797.7	790.5	783.3
60000 kPa	841.8	835	828.1	821.4	814.6	807.8	800.8	793.8	786.7
